The results in this text go back to PubChem BioAssay (NCI).

Some test systems named below: DMS 114 small cell lung; KM20L2 colon; P388 leukemia; P388/ADR leukemia; SN12K1 renal; RXF-631 renal.
What all share (experiment): NCI tumour cell line growth inhibition, 48 h

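Five concentrations, 48 hours, 96-well plates. At the TGI there is no net growth.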

For `S=c1ncc2c([nH]1)C1c3ccccc3C2c2ccccc21`, the TGI with DMS 114 small cell lung and in the test with KM20L2 colon was more than 100 µM each time.
As to `CC(C)C1NC(=O)CC(c2ccccc2)N(N=O)C1c1ccccc1` (stereo unspecified), the TGI in the test on P388 leukemia, in the test on DMS 114 small cell lung, with KM20L2 colon, in the test with P388/ADR leukemia and in the test on SN12K1 renal was more than 100 µM throughout.
Turning to `Cn1c2ccccc2c(=O)c2c(O)cc3c(c21)C=CC(C)(C)O3`, the TGI in the test with P388 leukemia, in the test with DMS 114 small cell lung, with KM20L2 colon, in the test with P388/ADR leukemia and in the test on SN12K1 renal was more than 25 µM throughout.
Regarding `O=C(c1ccc(Cl)cc1)c1ccc(OCCCOc2ccc(C(=O)c3ccc(Cl)cc3)cc2Cl)c(Cl)c1`, the TGI with DMS 114 small cell lung, with KM20L2 colon and with RXF-631 renal was more than 100 µM throughout.
In the case of `COc1cc(C2(c3ncc[nH]3)SSSCC2O)ccc1O` (stereo unspecified), the TGI in the test with P388 leukemia is more than 48.1 µM; in the test with DMS 114 small cell lung, 52.2 µM; with KM20L2 colon, more than 100 µM; in the test with P388/ADR leukemia, more than 54.8 µM; in the test with SN12K1 renal, more than 55.4 µM.
Turning to `COc1nc(N)c(NC(C)=O)c(=O)n1C`, the TGI in the test with DMS 114 small cell lung, with KM20L2 colon and in the test on RXF-631 renal was more than 100 µM each time.
`CC1CCC2CC(=O)OC([C@@H]3C(=O)O[C@@H](C4=CCCC4)C4C(C)CCC43)C12` (stereo partly specified): the TGI with DMS 114 small cell lung and in the test with KM20L2 colon was more than 100 µM in each case.
On to `CCCCCCCCCOCC(COP(=O)([O-])OCC[N+](C)(C)C)OC` (stereo unspecified), for which the TGI in the test with P388 leukemia, in the test on DMS 114 small cell lung, in the test on KM20L2 colon, in the test with P388/ADR leukemia and with SN12K1 renal was more than 100 µM throughout.
Turning to `C/C=C1\CN2CCc3c([nH]c4ccccc34)C2CC1CCO` (stereo unspecified), the TGI with DMS 114 small cell lung, in the test on KM20L2 colon and in the test with RXF-631 renal was more than 100 µM each time.
As for `CCOC(=O)CC(NC(=O)c1[nH]cnc1/N=N/N(C)C)C(=O)OCC` (stereo unspecified), the TGI in the test on DMS 114 small cell lung is more than 100 µM.
Turning to `CC1C2C=C(O)C(=O)C(C2=O)C1c1ccccc1` (stereo unspecified), the TGI in the test on KM20L2 colon and with RXF-631 renal was more than 100 µM throughout.
In the case of `CSCSCC(CO)NC(=O)/C(C)=C\c1c(C)[nH]c(=O)[nH]c1=O` (stereo unspecified), the TGI in the test with P388 leukemia, in the test on DMS 114 small cell lung, in the test on KM20L2 colon, with P388/ADR leukemia and in the test on SN12K1 renal was more than 250 µM in each case.
